Tested on: Non-malignant S1 cells
Experiment: 3D LrECM culture translational assay, Live/Dead viability/cytotoxicity (Calcein AM/EthD-1), non-malignant cells
Type: cell-based
Conditions: 3D culture, FIG. 8B
Description: Twenty-one compounds were received and reconstituted to yield 10 mM stock solution. Compounds were independently tested on a 2D culture assay to determine cell survival. Combinations of compounds were then tested on a 6×6 matrix on 2D culture to determine synergistic dosing. Then functional validation of the synergistic combinations was determined in 3D culture. (See FIG. 2).
Non-malignant S1 and Malignant T4-2 cells were evaluated for growth inhibition or cell death with the determined concentrations. The cells were plated at a density of 2×10^4 (S1) or 1×10^4 (T4-2) cells per well on top of Matrigel layer and allowed to form multicellular tumor colonies for 4-5 days. Then the cells were treated with either single-drug or drug combinations as PCI designed to evaluate synergistic interactions. Fresh media containing testing drugs were replenished every other day. At the end of the assay, we analyzed morphology and viability/cytotoxicity using phase imaging and fluorescent detection with Live/Dead using viability/cytotoxicity (Calcein AM/EthD-1) kit (FIG. 8). 3D translational assay in non-malignant S1 and malignant T4-2 cells were repeated 3 times.

COC[C@H](NC(=O)c1cnc(C)s1)C(=O)N[C@@H](COC)C(=O)N[C@@H](Cc1ccccc1)C(=O)[C@@]1(C)CO1 [Oprozomib, N-[(2S)-3-methoxy-1-[[(2S)-3-methoxy-1-[[(2S)-1-[(2R)-2-methyloxiran-2-yl]-1-oxo-3-phenylpropan-2-yl]amino]-1-oxopropan-2-yl]amino]-1-oxopropan-2-yl]-2-methyl-1,3-thiazole-5-carboxamide]
cell proliferation in non-malignant S1 cells: promoted cell proliferation

From US12521394B2, “Therapeutic compositions and methods for treating cancers” (Pattern Computer, Inc., priority 2019, dated 2026)
